# Reference: PMC12860872, “Preclinical evaluation of DOTAGA.Glu.(FAPI)2 and DO3A.Glu.(FAPI)2 as theranostics with human dosimetry extrapolation to lutetium-177 and terbium-161 analogs” (European Journal of Nuclear Medicine and Molecular Imaging, 2025)
# Several values for one entry are separate records, joined by “and”; a condition that tells them apart may be missing. Equal values may be shown once.
# Legend:
# PC3-mice = test: Biodistribution in PC3-mice incl. blocking; assay type: in vivo, mouse; conditions: PC3-mice
# Procedure: Male athymic Balb/C nude mice (6 weeks/20–25 g) were implanted with PC3 cells (3.5 × 10^6/100 µL PBS) into their right shoulder to develop tumors. The animals were used for biodistribution and PET/SPECT/CT imaging studies, once tumors reached 250–300 mm^3.
# All mice were euthanized with intraperitoneal injection of pentobarbital (150 mg/kg), and selected organs were dissected, weighed, and measured for radioactivity using a gamma-counter. Results are expressed as % injected activity per gram tissue (% I.A./g), presented as mean ± SD (n = 3–4).
# FAP = biological target: T1, FAP (Homo sapiens, UniProt Q12884); test: Saturation binding on FAP+ CAFs; conditions: listed as 68/natGa-DOTAGA.Glu.(FAPI)2
# T1 construct: the CAF cells overexpressing FAP were seeded at a density of 0.8-1 million cells per well; host or cells: hTERT PF179T prostate cancer-associated fibroblasts
# T1 sequence (Q12884 1-760): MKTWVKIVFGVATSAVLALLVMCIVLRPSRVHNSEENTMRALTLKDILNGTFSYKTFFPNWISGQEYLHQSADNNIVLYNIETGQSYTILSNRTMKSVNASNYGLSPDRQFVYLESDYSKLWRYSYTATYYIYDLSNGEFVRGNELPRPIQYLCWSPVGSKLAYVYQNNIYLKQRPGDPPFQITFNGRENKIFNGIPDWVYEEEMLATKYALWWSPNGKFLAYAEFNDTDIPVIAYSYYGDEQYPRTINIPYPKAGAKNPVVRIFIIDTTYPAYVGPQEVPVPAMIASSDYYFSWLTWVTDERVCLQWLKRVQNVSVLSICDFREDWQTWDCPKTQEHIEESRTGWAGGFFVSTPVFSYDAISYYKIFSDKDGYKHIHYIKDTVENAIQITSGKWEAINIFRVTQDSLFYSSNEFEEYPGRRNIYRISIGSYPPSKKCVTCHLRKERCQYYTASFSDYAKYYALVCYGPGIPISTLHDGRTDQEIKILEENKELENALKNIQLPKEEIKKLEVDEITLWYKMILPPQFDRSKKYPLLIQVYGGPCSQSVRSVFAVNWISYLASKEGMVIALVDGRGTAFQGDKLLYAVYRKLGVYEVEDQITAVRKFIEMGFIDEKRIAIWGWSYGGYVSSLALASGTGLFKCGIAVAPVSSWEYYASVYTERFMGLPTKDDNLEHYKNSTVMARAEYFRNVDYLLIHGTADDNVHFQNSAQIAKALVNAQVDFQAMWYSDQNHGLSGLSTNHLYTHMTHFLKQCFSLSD
# Procedure: For receptor saturation studies, FAP^+ CAFs were incubated with 0.1 to 10 nM of the radioligands. For internalization studies, approximately 2.5 pmol of the radioligands were added to CAFs followed by incubation for 15, 30, 60, 90, 120, 180 and 240 min for the ^68Ga-labeled or 30, 60, 120, 240 and 360 min for the ^177Lu-labeled radioligands at 37 °C, 5% CO2. For the externalization studies, approximately 2.5 pmol of the ^177Lu-labeled radioligands were added to CAFs followed by incubation for 2 h at 37 °C, 5% CO2. The amount of externalized activity was measured at 0, 10, 20, 30, 60, 120, 240, and 1440 min (Supplemental Data).
# For receptor saturation analysis, the CAF cells overexpressing FAP were seeded at a density of 0.8-1 million cells per well in 6-well plates, pre-coated with BME (Cultrex Reduced Growth Factor Basement Membrane Extract, RGF BME, R&D System, Minneapolis, USA) to enhance cell attachment. The cells were incubated overnight with medium (EMEM supplemented and containing 10% FBS, 100 U/mL penicillin and 100 μg/mL streptomycin). The next day, the medium was removed and the cells were incubated for 30 minutes at 37 °C, with 0.8 mL of fresh medium. Afterwards, the plates were placed on ice for 30 minutes followed by incubation with increasing concentrations of ^68/natGa- and ^177/natLu-labelled DOTAGA.Glu.(FAPI)2 and DO3A.Glu.( FAPI)2 (0.1-10 nM final concentration in the wells). After the addition of the radioligands, the cells were incubated for 120 minutes at 4 °C. Non-specific binding was determined in the presence of UAMC1110 at a final concentration of 1 μM. After the completion of the incubation, the cells were washed twice with ice-cold PBS, followed by solubilization with 1 M NaOH. The cell-associated radioactivity was measured using a gamma-counter. Specific binding was plotted against the total molar concentration of the added radiotracer. The Kd values and the concentration of the radioligand required to saturate the receptors (Bmax) were determined by nonlinear regression using GraphPad (Prism 8 Graph Pad Software, San Diego, CA). For all the cell studies the values are normalized for 1x10^6 cells per well and all data are from two independent experiments with triplicates in each experiment.
# [1] = Blocking 1h (20 nmol unlabeled precursor)
structure (smiles),measurement,setting,value
N#C[C@@H]1CC(F)(F)CN1C(=O)CNC(=O)c1ccnc2ccc(OCCCCNC(=O)CC[C@H](NC(=O)CCC(C(=O)O)N3CCN(CC(=O)[O-])CCN(CC(=O)[O-])CCN(CC(=O)[O-])CC3)C(=O)NCCCCOc3ccc4nccc(C(=O)NCC(=O)N5CC(F)(F)C[C@H]5C#N)c4c3)cc12.[68Ga+3] (stereo partly drawn) [[^68Ga]Ga-DOTAGA.Glu.(FAPI)2],Uptake in Adrenal,PC3-mice; 1 h p.i.,3.6±0.6 %I.A./g
same,Uptake in Blood,PC3-mice; 1 h p.i.,3.5 ± 0.2 %I.A./g
same,Uptake in Bone,PC3-mice; 1 h p.i.,4.9±0.8 %I.A./g
same,Uptake in Gallbladder,PC3-mice; 1 h p.i.,3.2±0.6 %I.A./g
same,Uptake in Heart,PC3-mice; 1 h p.i.,1.6±0.2 %I.A./g
same,Uptake in Intestine,PC3-mice; 1 h p.i.,1.4±0.2 %I.A./g
same,Uptake in Kidney,PC3-mice; 1 h p.i.,8.3±0.7 %I.A./g
same,Uptake in Liver,PC3-mice; 1 h p.i.,3±0.4 %I.A./g
same,Uptake in Lung,PC3-mice; 1 h p.i.,3.7±0.6 %I.A./g
same,Uptake in Muscle,PC3-mice; 1 h p.i.,1.9±0.2 %I.A./g
same,Uptake in Pancreas,PC3-mice; 1 h p.i.,2.5±0.2 %I.A./g
same,Uptake in Salivary glands,PC3-mice; 1 h p.i.,8.2±0.5 %I.A./g
same,Uptake in Spleen,PC3-mice; 1 h p.i.,1.6±0.01 %I.A./g
same,Uptake in Stomach,PC3-mice; 1 h p.i.,1.3±0.2 %I.A./g
same,Uptake in Tumor,PC3-mice; 1 h p.i.,18.2 ± 2.3 %I.A./g and 18.2±3.8 %I.A./g
same,Uptake in Adrenal,PC3-mice; 2 h p.i.,4.2±0.2 %I.A./g
same,Uptake in Blood,PC3-mice; 2 h p.i.,2.6±0.1 %I.A./g
same,Uptake in Bone,PC3-mice; 2 h p.i.,6.4±1.2 %I.A./g
same,Uptake in Gallbladder,PC3-mice; 2 h p.i.,2.3±0.4 %I.A./g
same,Uptake in Heart,PC3-mice; 2 h p.i.,1±0.01 %I.A./g
same,Uptake in Intestine,PC3-mice; 2 h p.i.,1±0.03 %I.A./g
same,Uptake in Kidney,PC3-mice; 2 h p.i.,4.8±0.5 %I.A./g
same,Uptake in Liver,PC3-mice; 2 h p.i.,1.4±0.04 %I.A./g
same,Uptake in Lung,PC3-mice; 2 h p.i.,1.7±0.2 %I.A./g
same,Uptake in Muscle,PC3-mice; 2 h p.i.,1.7±0.3 %I.A./g
same,Uptake in Pancreas,PC3-mice; 2 h p.i.,2.3±0.1 %I.A./g
same,Uptake in Salivary glands,PC3-mice; 2 h p.i.,6.5±1.1 %I.A./g
same,Uptake in Spleen,PC3-mice; 2 h p.i.,1±0.1 %I.A./g
same,Uptake in Stomach,PC3-mice; 2 h p.i.,0.9±0.04 %I.A./g
same,Uptake in Tumor,PC3-mice; 2 h p.i.,17.8 ± 0.5 %I.A./g
same,Uptake in Adrenal,PC3-mice; 3 h p.i.,3.9±2 %I.A./g
same,Uptake in Blood,PC3-mice; 3 h p.i.,2.5 ± 0.1 %I.A./g
same,Uptake in Bone,PC3-mice; 3 h p.i.,6.7±0.1 %I.A./g
same,Uptake in Gallbladder,PC3-mice; 3 h p.i.,2.6±1.1 %I.A./g
same,Uptake in Heart,PC3-mice; 3 h p.i.,1±0.2 %I.A./g
same,Uptake in Intestine,PC3-mice; 3 h p.i.,1.1±0.1 %I.A./g
same,Uptake in Kidney,PC3-mice; 3 h p.i.,4.4±0.4 %I.A./g
same,Uptake in Liver,PC3-mice; 3 h p.i.,1.6±0.2 %I.A./g
same,Uptake in Lung,PC3-mice; 3 h p.i.,1.4±0.1 %I.A./g
same,Uptake in Muscle,PC3-mice; 3 h p.i.,1.6±0.2 %I.A./g
same,Uptake in Pancreas,PC3-mice; 3 h p.i.,2±0.1 %I.A./g
same,Uptake in Salivary glands,PC3-mice; 3 h p.i.,6±0.1 %I.A./g
same,Uptake in Spleen,PC3-mice; 3 h p.i.,1.1±0.2 %I.A./g
same,Uptake in Stomach,PC3-mice; 3 h p.i.,1±0.1 %I.A./g
same,Uptake in Tumor,PC3-mice; 3 h p.i.,18.4 ± 2.2 %I.A./g and 18.4±2.1 %I.A./g
same,Uptake in Adrenal,PC3-mice; [1],0.7±0.1 %I.A./g
same,Uptake in Blood,PC3-mice; [1],1.7±0.5 %I.A./g
same,Uptake in Bone,PC3-mice; [1],0.3±0.2 %I.A./g
same,Uptake in Gallbladder,PC3-mice; [1],5.5±0.6 %I.A./g
same,Uptake in Heart,PC3-mice; [1],0.6±0.1 %I.A./g
same,Uptake in Intestine,PC3-mice; [1],0.6±0.3 %I.A./g
same,Uptake in Kidney,PC3-mice; [1],5.6±1.8 %I.A./g
same,Uptake in Liver,PC3-mice; [1],0.6±0.2 %I.A./g
same,Uptake in Lung,PC3-mice; [1],1.3±0.5 %I.A./g
same,Uptake in Muscle,PC3-mice; [1],0.2±0.1 %I.A./g
same,Uptake in Pancreas,PC3-mice; [1],0.3±0.1 %I.A./g
same,Uptake in Salivary glands,PC3-mice; [1],0.7±0.1 %I.A./g
same,Uptake in Spleen,PC3-mice; [1],0.5±0.1 %I.A./g
same,Uptake in Stomach,PC3-mice; [1],0.5±0.1 %I.A./g
same,Uptake in Tumor,PC3-mice; [1],1.4±0.5 %I.A./g
same,tumor uptake,PC3-mice; sustained up to 3 h p.i.,18–19 %I.A./g
same,Kd,FAP; 0.1 to 10 nM radioligand,0.8 nM and 0.77 nM
same,Bmax,FAP,0.7 ± 0.04 nM and 0.67 ± 0.04 nM
